The source of these data is patent US20250230147A1, “LACTAMS AS CBL-B INHIBITORS” (Genentech, Inc., priority 2021, published 2025).

The target of one experiment is Cbl-b (Homo sapiens (Human), UniProt Q13191). As to the kind of experiment: Cbl-b LCK Ub TR-FRET assay (Cbl-b Lck HTRF). The class given is biochemical. Put shortly: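 Biotin-Cbl-b preincubated with compound (10-point 3-fold series) 60 min, then His-LCK with 1 mM ATP (2× mixture) added for 90 min at room temperature. Ubiquitination detected by TR-FRET using HA-ubiquitin/UBE2D2 adduct, anti-HA-D2 and streptavidin-Eu; IC50 normalised to no-LCK and DMSO controls.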
(In general: TR-FRET usually uses a lanthanide donor and a delayed reading to cut background.)

The target of the next experiment is c-Cbl (Homo sapiens (Human), UniProt P22681). As to the kind of experiment: C-Cbl LCK Ub TR-FRET assay (c-cbl Lck HTRF). The class given is biochemical. The following applies: for (fold-selectivity): C-cbl Lck HTRF IC50 relative to Cbl-b Lck HTRF IC50. A digest of the protocol: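 Detection reagents added, brief spin, 20 min RT. IC50 fit normalized to no-LCK (low) and DMSO (high) controls.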
c-Cbl, sequence (P22681 47-435): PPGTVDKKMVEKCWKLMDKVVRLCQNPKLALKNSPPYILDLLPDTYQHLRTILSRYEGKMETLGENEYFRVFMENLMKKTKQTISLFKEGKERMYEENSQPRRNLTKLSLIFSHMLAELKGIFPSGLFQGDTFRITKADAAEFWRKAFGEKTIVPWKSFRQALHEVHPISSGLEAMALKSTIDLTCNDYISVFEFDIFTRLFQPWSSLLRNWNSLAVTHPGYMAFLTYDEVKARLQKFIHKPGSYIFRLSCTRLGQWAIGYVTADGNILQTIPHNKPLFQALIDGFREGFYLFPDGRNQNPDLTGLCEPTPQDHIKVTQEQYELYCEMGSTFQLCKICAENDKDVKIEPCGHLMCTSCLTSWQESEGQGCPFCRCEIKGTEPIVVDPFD

Cbl-b, sequence (Q13191 40-426): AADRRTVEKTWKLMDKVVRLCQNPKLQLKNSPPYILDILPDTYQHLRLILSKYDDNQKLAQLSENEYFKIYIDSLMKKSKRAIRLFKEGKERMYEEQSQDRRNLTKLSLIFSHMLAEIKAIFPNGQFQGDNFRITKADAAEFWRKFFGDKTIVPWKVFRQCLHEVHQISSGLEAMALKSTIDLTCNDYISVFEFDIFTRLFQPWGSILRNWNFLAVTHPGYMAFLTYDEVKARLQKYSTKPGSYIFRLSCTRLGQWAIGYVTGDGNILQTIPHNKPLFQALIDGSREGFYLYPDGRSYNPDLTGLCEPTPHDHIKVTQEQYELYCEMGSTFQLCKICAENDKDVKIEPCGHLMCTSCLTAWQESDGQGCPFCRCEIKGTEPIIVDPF

In general, IC50 refers to the concentration that gives 50% inhibition. A higher IC50 goes with a need for much substance. Take `CN(CCC(C)(C)O)Cc1cc2c(c(C(F)(F)F)c1)CN(c1cccc(C3([C@H](F)c4nncn4C)COC3)c1)C2=O` [Compound 158, (S)-2-(3-(3-(fluoro(4-methyl-4H-1,2,4-triazol-3-yl)methyl)oxetan-3-yl)phenyl)-6-(((3-hydroxy-3-methylbutyl)(methyl)amino)methyl)-4-(trifluoromethyl)isoindolin-1-one]: the figures for the IC50 against Cbl-b and on c-Cbl were 270 nM and 280 nM, respectively. Also, the “(fold-selectivity)” value on c-Cbl stood at 1.0x.
The like results for `Cc1ncn(CC2(c3cccc(N4Cc5c(cc(CN6CCN(C)C[C@@H]6C(C)C)cc5C(F)(F)F)C4=O)c3)COC2)n1` [Compound 255, (S)-6-((2-isopropyl-4-methylpiperazin-1-yl)methyl)-2-(3-(3-((3-methyl-1H-1,2,4-triazol-1-yl)methyl)oxetan-3-yl)phenyl)-4-(trifluoromethyl)isoindolin-1-one] were, in that order, 20000 nM, no less than 20000 nM and “(1.0x)”.
The like results for `CC(C)[C@H]1CN(C)CCN1Cc1cc2c(c(C(F)(F)F)c1)CN(c1cc(C3(Cc4nncn4C)COC3)cc(OC3CCCC3)n1)C2=O` [Compound 293, (S)-2-(6-(cyclopentyloxy)-4-(3-((4-methyl-4H-1,2,4-triazol-3-yl)methyl)oxetan-3-yl)pyridin-2-yl)-6-((2-isopropyl-4-methylpiperazin-1-yl)methyl)-4-(trifluoromethyl)isoindolin-1-one] were, in that order, 5.5 nM, 7.8 nM and “(1.4x)”.
The corresponding values for `CCCNCc1cc2c(c(C(F)(F)F)c1)CN(c1cc(NC(C)C)cc(C3(Cc4nncn4C)CCC3)c1)C2=O` [Compound 456, 2-(3-(isopropylamino)-5-(1-((4-methyl-4H-1,2,4-triazol-3-yl)methyl)cyclobutyl)phenyl)-6-((propylamino)methyl)-4-(trifluoromethyl)isoindolin-1-one] are 13 nM, 7.6 nM and “(0.56x)”.
As to `CC(C)[C@@H]1CN(Cc2cc3c(c(C(F)(F)F)c2)CN(c2cccc(C4([C@@H](F)c5nncn5C)COC4)c2)C3=O)CCN1C` [Compound 406, 2-(3-(3-((R)-fluoro(4-methyl-4H-1,2,4-triazol-3-yl)methyl)oxetan-3-yl)phenyl)-6-(((R)-3-isopropyl-4-methylpiperazin-1-yl)methyl)-4-(trifluoromethyl)isoindolin-1-one], the IC50 against Cbl-b turned out to be 75 nM. Further, at c-Cbl, the IC50 came to 84 nM and the “(fold-selectivity)” value is “(1.1x)”.
As to `Cn1cnnc1[C@H](F)C1(c2cccc(N3Cc4c(cc([C@@H](N)CC5CC5)cc4C(F)(F)F)C3=O)c2)COC1` [Compound 389, 6-((S)-1-amino-2-cyclopropylethyl)-2-(3-(3-((R)-fluoro(4-methyl-4H-1,2,4-triazol-3-yl)methyl)oxetan-3-yl)phenyl)-4-(trifluoromethyl)isoindolin-1-one], at Cbl-b, half-maximal inhibition (IC50) required 9.6 nM. On c-Cbl, it took 14 nM to reach half-maximal inhibition (IC50) and the “(fold-selectivity)” value is reported as “(1.4x)”.
The corresponding values for `CC(=O)Nc1cc(C2(Cc3nncn3C)CCC2)cc(N2Cc3c(cc(CN4CCN(C)C[C@@H]4C(C)C)cc3C(F)(F)F)C2=O)n1` [Compound 330, (S)-N-(6-(6-((2-isopropyl-4-methylpiperazin-1-yl)methyl)-1-oxo-4-(trifluoromethyl)isoindolin-2-yl)-4-(1-((4-methyl-4H-1,2,4-triazol-3-yl)methyl)cyclobutyl)pyridin-2-yl)acetamide] are 1000 nM, 1200 nM and “(1.2x)”.
The corresponding values for `Cn1cnnc1CC1(c2cc(NCCN3CCOCC3)nc(N3Cc4c(cc(CNC5(C)CCC5)cc4C(F)(F)F)C3=O)c2)CCC1` [Compound 340, 2-(4-(1-((4-methyl-4H-1,2,4-triazol-3-yl)methyl)cyclobutyl)-6-((2-morpholinoethyl)amino)pyridin-2-yl)-6-(((1-methylcyclobutyl)amino)methyl)-4-(trifluoromethyl)isoindolin-1-one] are 440 nM, 320 nM and “(0.74x)”.
The corresponding values for `CCNc1cc(N2Cc3c(cc(CNC4(C)CCC4)cc3C(F)(F)F)C2=O)cc(C2(Cc3nncn3C)CCC2)c1` [Compound 463, 2-(3-(ethylamino)-5-(1-((4-methyl-4H-1,2,4-triazol-3-yl)methyl)cyclobutyl)phenyl)-6-(((1-methylcyclobutyl)amino)methyl)-4-(trifluoromethyl)isoindolin-1-one] are 6 nM, 3.5 nM and “(0.55x)”.
At Cbl-b, `C[C@@H]1COCCN1c1cc(C2(Cc3nncn3C)COC2)cc(N2Cc3c(cccc3C(F)(F)F)C2=O)n1` [Compound 490, (R)-2-(4-(3-((4-methyl-4H-1,2,4-triazol-3-yl)methyl)oxetan-3-yl)-6-(3-methylmorpholino)pyridin-2-yl)-4-(trifluoromethyl)isoindolin-1-one] showed an IC50 of 3300 nM. Also, on c-Cbl, the IC50 was 3500 nM and the “(fold-selectivity)” value is “(1.0x)”.
For `CC(C)CNCc1cc2c(c(C(F)(F)F)c1)CN(c1cccc(C3([C@@H](F)c4nncn4C)CC(F)(F)C3)c1)C2=O` [Compound 451, (R)-2-(3-(3,3-difluoro-1-(fluoro(4-methyl-4H-1,2,4-triazol-3-yl)methyl)cyclobutyl)phenyl)-6-((isobutylamino)methyl)-4-(trifluoromethyl)isoindolin-1-one], the IC50 was 15 nM against Cbl-b and 10 nM at c-Cbl. Besides, at c-Cbl, the “(fold-selectivity)” value was “(0.71x)”.
The like results for `CCC1(O)CN(Cc2cc3c(c(C(F)(F)F)c2)CN(c2cccc(C4([C@H](F)c5nncn5C)COC4)c2)C3=O)C1` [Compound 168, (S)-6-((3-ethyl-3-hydroxyazetidin-1-yl)methyl)-2-(3-(3-(fluoro(4-methyl-4H-1,2,4-triazol-3-yl)methyl)oxetan-3-yl)phenyl)-4-(trifluoromethyl)isoindolin-1-one] were, in that order, 180 nM, 380 nM and 2.1x.
The like results for `Cn1cnnc1CC1(c2cccc(N3Cc4c(cc(CN5CCNC[C@H]5C5CC5)cc4C(F)(F)F)C3=O)c2)CC(F)(F)C1` [Compound 436, (R)-6-((2-cyclopropylpiperazin-1-yl)methyl)-2-(3-(3,3-difluoro-1-((4-methyl-4H-1,2,4-triazol-3-yl)methyl)cyclobutyl)phenyl)-4-(trifluoromethyl)isoindolin-1-one] were, in that order, 34 nM, 32 nM and “(0.97x)”.
Consider `Cn1cnnc1[C@@H](F)C1(c2cccc(N3Cc4c(cc(CN5CC(C)(CO)C5)cc4C(F)(F)F)C3=O)c2)CC1` [Compound 125, (S)-2-(3-(1-(fluoro(4-methyl-4H-1,2,4-triazol-3-yl)methyl)cyclopropyl)phenyl)-6((3-(hydroxymethyl)-3-methylazetidin-1-yl)methyl)-4-(trifluoromethyl)isoindolin-1-one], for which the IC50 was 140 nM on Cbl-b and 240 nM at c-Cbl. In addition, on c-Cbl, the “(fold-selectivity)” value is listed as 1.7x.
At Cbl-b, `CCOc1cc(C2(Cc3nncn3C)CCC2)cc(N2Cc3c(cc(CN4CCN(C)C[C@@H]4C(C)C)cc3C(F)(F)F)C2=O)n1` [Compound 404, (S)-2-(6-ethoxy-4-(1-((4-methyl-4H-1,2,4-triazol-3-yl)methyl)cyclobutyl)pyridin-2-yl)-6-((2-isopropyl-4-methylpiperazin-1 - yl)methyl)-4-(trifluoromethyl)isoindolin-1-one] had an IC50 of 10 nM. At c-Cbl, 5.4 nM corresponded to half-maximal inhibition (IC50) and the “(fold-selectivity)” value was “(0.54x)”.
The corresponding values for `Cn1cnnc1[C@H](F)C1(c2cccc(N3Cc4c(cc([C@H](N)CC5CC5)cc4C(F)(F)F)C3=O)c2)COC1` [Compound 390, 6-((R)-1-amino-2-cyclopropylethyl)-2-(3-(3-((R)-fluoro(4-methyl-4H-1,2,4-triazol-3-yl)methyl)oxetan-3-yl)phenyl)-4-(trifluoromethyl)isoindolin-1-one] are 96 nM, 11 nM and “(1.1x)”.
`Cn1cnnc1[C@@H](F)C1(c2cccc(N3Cc4c(cc(CN5CCC(C)(O)CC5)cc4C(F)(F)F)C3=O)c2)COC1` [Compound 142, (S)-2-(3-(3-(fluoro(4-methyl-4H-1,2,4-triazol-3-yl)methyl)oxetan-3-yl)phenyl)-6-((4-hydroxy-4-methylpiperidin-1-yl)methyl)-4-(trifluoromethyl)isoindolin-1-one] came in with a half-inhibitory concentration (IC50) against Cbl-b of 230 nM. In addition, at c-Cbl, the IC50 turned out to be 430 nM and the “(fold-selectivity)” value is 1.9x.
Consider `Cn1cnnc1CC1(c2cccc(N3Cc4c(cc(CNC5(C)CCC5)cc4C(F)F)C3=O)c2)CC(F)(F)C1` [Compound 250, 2-(3-(3,3-difluoro-1-((4-methyl-4H-1,2,4-triazol-3-yl)methyl)cyclo-butyl)phenyl)-4-(difluoromethyl)-6-(((1-methylcyclobutyl)amino)methyl)isoindolin-1-one], for which the IC50 was 12 nM on Cbl-b and 9.3 nM at c-Cbl. Further, on c-Cbl, the “(fold-selectivity)” value is “(0.77x)”.
In turn, `CC[C@H](C)Nc1cc(C2(Cc3nncn3C)COC2)cc(N2Cc3c(cccc3C(F)(F)F)C2=O)n1` [Compound 481, (S)-2-(6-(sec-butylamino)-4-(3-((4-methyl-4H-1,2,4-triazol-3-yl)methyl)oxetan-3-yl)pyridin-2-yl)-4-(trifluoromethyl)isoindolin-1-one] registered an IC50 at Cbl-b of 110 nM. Moreover, at c-Cbl, half-maximal inhibition (IC50) required 420 nM and the “(fold-selectivity)” value is listed as “(3.7x)”.
